Results taken from ChEMBL document CHEMBL1201862, “PubChem BioAssay data set” (2004).
The source made the active and inactive calls.

How the values were obtained:
[1] = target: T1, Sentrin-specific protease 6 (Homo sapiens, UniProt Q9GZR1); format: functional;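 further: Luminescence-based dose-response confirmatory assay of SENP6 inhibition, following up an ultra-high-throughput screen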
T1 sequence (Q9GZR1 whole entry): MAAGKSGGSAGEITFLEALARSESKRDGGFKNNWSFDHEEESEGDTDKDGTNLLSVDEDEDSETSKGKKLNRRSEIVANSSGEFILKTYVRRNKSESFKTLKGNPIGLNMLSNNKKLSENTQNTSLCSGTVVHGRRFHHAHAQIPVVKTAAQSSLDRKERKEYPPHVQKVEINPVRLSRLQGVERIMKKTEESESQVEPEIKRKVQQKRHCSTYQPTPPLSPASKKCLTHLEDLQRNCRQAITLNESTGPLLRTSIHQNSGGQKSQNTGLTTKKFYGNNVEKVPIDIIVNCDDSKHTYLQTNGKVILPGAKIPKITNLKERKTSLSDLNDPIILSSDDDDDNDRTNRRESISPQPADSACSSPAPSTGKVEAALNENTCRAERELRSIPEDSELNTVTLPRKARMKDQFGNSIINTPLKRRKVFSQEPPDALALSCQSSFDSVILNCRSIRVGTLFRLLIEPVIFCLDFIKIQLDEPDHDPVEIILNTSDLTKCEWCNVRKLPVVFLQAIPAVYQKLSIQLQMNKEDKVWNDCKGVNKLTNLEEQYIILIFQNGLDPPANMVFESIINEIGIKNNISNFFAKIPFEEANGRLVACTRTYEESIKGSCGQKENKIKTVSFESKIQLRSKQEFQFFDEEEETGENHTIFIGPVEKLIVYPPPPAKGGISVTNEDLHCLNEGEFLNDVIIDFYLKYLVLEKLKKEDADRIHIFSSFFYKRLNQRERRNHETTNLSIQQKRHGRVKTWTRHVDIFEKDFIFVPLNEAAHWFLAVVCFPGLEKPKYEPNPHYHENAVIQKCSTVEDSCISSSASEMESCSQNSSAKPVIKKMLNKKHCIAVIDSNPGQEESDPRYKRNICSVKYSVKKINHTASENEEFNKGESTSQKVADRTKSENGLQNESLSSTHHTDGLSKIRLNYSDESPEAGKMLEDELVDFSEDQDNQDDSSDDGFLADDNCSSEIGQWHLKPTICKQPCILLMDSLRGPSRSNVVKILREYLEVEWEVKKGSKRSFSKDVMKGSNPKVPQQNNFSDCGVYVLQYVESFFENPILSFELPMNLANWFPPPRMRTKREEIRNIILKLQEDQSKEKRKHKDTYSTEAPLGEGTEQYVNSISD

Activin receptor type-1 = Activin receptor type-1 (Homo sapiens, UniProt Q04771); experiment: Navigating the Kinome. Panel member name: ACVR1; format: functional
[2] = target: Dual specificity tyrosine-phosphorylation-regulated kinase 1B (Homo sapiens, UniProt Q9Y463); experiment: Navigating the Kinome. Panel member name: DYRK1B; format: functional
Dual specificity tyrosine-phosphorylation-regulated kinase 1B, sequence (Q9Y463 whole entry): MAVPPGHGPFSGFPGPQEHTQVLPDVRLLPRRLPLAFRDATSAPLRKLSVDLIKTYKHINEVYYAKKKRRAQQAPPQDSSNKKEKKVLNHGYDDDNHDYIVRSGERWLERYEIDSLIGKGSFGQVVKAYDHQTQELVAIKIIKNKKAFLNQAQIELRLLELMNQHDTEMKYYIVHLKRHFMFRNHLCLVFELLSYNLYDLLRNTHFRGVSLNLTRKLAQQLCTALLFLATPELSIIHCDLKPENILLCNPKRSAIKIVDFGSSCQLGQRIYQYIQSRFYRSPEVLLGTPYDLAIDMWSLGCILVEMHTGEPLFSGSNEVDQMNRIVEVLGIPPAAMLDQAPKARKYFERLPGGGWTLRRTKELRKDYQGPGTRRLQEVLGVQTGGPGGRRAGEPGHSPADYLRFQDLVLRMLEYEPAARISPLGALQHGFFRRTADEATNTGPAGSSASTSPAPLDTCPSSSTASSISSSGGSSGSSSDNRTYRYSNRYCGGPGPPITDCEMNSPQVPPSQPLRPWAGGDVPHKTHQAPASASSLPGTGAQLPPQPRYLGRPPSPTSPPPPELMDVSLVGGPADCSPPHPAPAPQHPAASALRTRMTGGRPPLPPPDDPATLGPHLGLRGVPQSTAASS

[3] = target: Platelet-derived growth factor receptor alpha (Homo sapiens, UniProt P16234); experiment: Navigating the Kinome. Panel member name: PDGFRA; format: functional
[4] = target: Inhibitor of nuclear factor kappa-B kinase subunit epsilon (Homo sapiens, UniProt Q14164); experiment: Navigating the Kinome. Panel member name: IKBKE; format: functional
[5] = target: Dual specificity protein kinase CLK4 (Homo sapiens, UniProt Q9HAZ1); format: functional
[6] = target: Serine/threonine-protein kinase D3 (Homo sapiens, UniProt O94806); format: functional;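 further: determined within a kinase panel screen, with PRKCN as the panel member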
Serine/threonine-protein kinase D3, sequence (O94806 whole entry): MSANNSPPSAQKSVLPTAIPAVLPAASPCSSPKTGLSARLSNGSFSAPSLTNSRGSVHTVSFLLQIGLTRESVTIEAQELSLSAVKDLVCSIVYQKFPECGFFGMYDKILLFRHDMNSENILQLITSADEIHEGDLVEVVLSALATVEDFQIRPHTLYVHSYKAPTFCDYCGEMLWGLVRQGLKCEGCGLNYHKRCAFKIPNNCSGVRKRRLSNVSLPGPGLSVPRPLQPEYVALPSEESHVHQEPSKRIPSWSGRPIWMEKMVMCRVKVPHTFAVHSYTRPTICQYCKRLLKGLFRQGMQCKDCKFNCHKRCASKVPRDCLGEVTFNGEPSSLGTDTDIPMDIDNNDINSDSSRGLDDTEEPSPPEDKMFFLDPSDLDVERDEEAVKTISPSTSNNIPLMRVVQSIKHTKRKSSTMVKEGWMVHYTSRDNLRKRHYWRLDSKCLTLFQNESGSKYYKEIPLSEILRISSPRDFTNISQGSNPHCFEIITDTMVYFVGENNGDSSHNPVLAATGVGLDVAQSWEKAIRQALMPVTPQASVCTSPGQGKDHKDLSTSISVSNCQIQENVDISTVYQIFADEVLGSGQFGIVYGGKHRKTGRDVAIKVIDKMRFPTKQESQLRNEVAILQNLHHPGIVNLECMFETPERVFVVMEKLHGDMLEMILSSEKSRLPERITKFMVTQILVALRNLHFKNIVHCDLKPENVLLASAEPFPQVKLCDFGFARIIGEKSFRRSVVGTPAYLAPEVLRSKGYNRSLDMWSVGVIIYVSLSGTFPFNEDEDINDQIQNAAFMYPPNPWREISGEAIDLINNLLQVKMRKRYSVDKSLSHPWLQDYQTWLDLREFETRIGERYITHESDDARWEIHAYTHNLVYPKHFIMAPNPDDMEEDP

[7] = target: Hepatocyte growth factor receptor (Homo sapiens, UniProt P08581); format: functional;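 further: kinase panel profiling across the kinome, with MET as the panel member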
[8] = target: Mitogen-activated protein kinase 8 (Homo sapiens, UniProt P45983); format: functional;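 further: value comes from one member of a kinome-wide kinase profiling panel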
Mitogen-activated protein kinase 8, sequence (P45983 whole entry): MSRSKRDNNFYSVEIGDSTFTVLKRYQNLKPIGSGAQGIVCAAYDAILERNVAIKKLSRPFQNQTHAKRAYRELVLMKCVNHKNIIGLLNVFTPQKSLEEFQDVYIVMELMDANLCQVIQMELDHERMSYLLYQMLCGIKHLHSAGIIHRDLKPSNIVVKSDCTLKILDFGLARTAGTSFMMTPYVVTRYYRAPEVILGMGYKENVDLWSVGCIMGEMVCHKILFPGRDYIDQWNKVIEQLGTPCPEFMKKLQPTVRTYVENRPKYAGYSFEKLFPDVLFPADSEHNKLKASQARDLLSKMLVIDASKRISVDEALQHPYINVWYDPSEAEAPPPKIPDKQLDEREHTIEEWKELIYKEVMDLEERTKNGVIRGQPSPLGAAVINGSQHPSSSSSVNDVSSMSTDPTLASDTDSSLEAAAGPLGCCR

[9] = target: Proto-oncogene tyrosine-protein kinase receptor Ret (Homo sapiens, UniProt P07949); format: functional;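 further: measured within a kinome-wide profiling panel, RET as the panel member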
Proto-oncogene tyrosine-protein kinase receptor Ret, sequence (P07949 whole entry): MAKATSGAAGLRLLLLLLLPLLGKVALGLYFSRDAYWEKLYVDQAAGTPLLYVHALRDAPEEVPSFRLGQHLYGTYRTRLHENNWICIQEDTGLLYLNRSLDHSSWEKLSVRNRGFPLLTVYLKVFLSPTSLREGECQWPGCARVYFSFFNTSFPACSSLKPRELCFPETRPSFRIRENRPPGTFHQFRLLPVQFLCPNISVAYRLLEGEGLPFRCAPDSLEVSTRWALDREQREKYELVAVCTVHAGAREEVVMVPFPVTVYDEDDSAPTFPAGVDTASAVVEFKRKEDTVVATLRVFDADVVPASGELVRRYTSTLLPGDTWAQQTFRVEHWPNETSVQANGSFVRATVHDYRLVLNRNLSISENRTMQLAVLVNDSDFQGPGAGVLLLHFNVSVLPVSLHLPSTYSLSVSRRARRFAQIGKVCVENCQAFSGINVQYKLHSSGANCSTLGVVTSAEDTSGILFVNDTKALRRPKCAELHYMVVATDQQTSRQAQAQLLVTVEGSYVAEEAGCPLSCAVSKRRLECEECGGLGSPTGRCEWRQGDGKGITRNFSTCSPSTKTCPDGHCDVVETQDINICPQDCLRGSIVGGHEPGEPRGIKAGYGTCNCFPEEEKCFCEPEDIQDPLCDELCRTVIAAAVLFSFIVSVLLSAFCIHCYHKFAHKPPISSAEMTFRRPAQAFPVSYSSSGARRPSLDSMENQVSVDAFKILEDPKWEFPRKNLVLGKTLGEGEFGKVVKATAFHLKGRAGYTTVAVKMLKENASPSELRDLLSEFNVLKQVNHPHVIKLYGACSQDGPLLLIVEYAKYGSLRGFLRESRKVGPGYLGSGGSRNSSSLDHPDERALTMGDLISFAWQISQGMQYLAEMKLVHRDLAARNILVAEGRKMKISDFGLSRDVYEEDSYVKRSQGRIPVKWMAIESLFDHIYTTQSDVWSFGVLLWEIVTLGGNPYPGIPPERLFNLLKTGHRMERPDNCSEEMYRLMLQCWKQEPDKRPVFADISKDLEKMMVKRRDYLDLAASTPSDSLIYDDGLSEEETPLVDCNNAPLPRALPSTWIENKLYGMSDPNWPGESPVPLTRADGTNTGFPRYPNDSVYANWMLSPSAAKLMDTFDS

[10] = target: Receptor-type tyrosine-protein kinase FLT3 (Homo sapiens, UniProt P36888); format: functional;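 further: FLT3 was tested as one member of a kinome-wide kinase panel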
Receptor-type tyrosine-protein kinase FLT3, sequence (P36888 whole entry, canonical isoform): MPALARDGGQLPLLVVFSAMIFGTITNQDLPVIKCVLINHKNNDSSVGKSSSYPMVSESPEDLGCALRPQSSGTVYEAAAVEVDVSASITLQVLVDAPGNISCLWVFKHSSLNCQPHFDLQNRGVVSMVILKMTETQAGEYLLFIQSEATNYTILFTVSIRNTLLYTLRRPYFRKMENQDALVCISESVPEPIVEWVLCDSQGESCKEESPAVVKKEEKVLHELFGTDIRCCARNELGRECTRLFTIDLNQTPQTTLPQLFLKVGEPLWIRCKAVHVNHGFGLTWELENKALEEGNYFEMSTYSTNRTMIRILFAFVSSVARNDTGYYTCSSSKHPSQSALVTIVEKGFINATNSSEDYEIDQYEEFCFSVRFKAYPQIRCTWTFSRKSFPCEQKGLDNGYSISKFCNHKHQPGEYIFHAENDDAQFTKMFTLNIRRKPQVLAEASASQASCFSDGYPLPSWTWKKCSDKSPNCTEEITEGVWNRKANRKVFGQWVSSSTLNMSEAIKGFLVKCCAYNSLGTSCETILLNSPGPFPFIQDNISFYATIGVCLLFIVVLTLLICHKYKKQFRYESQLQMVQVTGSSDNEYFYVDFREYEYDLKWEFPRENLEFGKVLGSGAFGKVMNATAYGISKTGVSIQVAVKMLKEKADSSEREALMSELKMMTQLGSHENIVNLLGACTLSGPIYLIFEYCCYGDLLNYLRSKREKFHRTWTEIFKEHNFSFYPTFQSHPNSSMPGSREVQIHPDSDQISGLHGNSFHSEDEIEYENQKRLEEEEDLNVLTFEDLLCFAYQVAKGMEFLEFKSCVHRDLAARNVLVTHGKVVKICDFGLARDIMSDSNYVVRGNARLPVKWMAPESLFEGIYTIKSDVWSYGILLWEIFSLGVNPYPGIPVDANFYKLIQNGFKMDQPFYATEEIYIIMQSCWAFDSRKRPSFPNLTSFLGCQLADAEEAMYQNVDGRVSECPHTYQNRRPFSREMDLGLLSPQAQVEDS

[11] = target: Casein kinase I isoform alpha (Homo sapiens, UniProt P48729); format: functional
Casein kinase I isoform alpha, sequence (P48729 whole entry, canonical isoform): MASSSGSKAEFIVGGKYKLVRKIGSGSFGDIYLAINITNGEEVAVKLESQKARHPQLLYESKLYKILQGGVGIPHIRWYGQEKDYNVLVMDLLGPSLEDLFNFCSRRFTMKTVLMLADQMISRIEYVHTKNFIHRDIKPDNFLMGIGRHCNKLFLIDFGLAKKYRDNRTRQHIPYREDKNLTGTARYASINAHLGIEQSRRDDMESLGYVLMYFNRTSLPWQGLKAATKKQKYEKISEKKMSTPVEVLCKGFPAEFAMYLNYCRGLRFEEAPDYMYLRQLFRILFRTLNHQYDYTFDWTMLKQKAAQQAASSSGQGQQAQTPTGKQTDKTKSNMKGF

[12] = target: Dual specificity protein kinase CLK2 (Homo sapiens, UniProt P49760); format: functional
Dual specificity protein kinase CLK2, sequence (P49760 whole entry): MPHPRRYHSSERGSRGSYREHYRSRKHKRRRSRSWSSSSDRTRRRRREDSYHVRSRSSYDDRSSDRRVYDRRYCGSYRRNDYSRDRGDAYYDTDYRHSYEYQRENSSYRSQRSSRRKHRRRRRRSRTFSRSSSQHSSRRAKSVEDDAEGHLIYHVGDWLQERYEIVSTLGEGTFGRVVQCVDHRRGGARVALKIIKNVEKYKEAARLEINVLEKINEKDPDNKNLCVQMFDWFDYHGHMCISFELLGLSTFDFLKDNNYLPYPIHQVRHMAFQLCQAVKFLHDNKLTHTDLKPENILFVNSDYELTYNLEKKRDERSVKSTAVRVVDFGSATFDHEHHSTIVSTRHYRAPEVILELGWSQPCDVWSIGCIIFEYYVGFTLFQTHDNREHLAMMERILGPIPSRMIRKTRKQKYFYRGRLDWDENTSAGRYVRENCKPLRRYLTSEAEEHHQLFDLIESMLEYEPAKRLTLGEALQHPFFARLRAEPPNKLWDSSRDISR

[13] = target: Tyrosine-protein kinase ABL1 (Homo sapiens, UniProt P00519); format: functional
[14] = target: Tyrosine-protein kinase JAK2 (Homo sapiens, UniProt O60674); format: functional;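 further: JAK2 tested as one member of a kinase panel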
[15] = Luminescence-based dose response cell-based high throughput screening assay for cytotoxic compounds using the IEC-6 intestinal epithelial cell line. [Related pubchem assays: 1858 (Summary AID.), 1825 (Counterscreen.), 1907 (Confirmation screen.)]; format: functional
[16] = Trypanosoma cruzi growth suppression in host cells – NIH3T3 host cells, beta-gal luminescence, confirmation (AID 2044); format: functional, cell-based;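 further: intracellular parasites grown in NIH/3T3 mouse fibroblasts as host cells; luminescent beta-galactosidase reporter signal from transgenic T. cruzi replicating inside host cells; inhibitors lower the luminescence signal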
[17] = target: Ras and Rab interactor 1/Tyrosine-protein kinase ABL1 (Homo sapiens, UniProt P00519+Q13671); format: functional;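 further: biochemical TR-FRET dose-response test measuring inhibition of binding between Rin1 and Abl proteins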

SMILES | IC50 [1] | Ki (Activin receptor type-1) | Ki [2] | Ki [3] | Ki [4] | Ki [5] | Ki [6] | Ki [7] | Ki [8] | Ki [9] | Ki [10] | Ki [11] | Ki [12] | Ki [13] | Ki [14] | IC50 [15] | EC50 [16] | IC50 [17]
CC(C)c1ccc(-c2nnn(CCC(=O)O)n2)cc1 | 9.32 µM (active) |  |  |  |  |  |  |  |  |  |  |  |  |  |  |  |  | 
O=c1[nH][nH]c2ccc(Br)cc12 |  | 7.94 µM (active) | 3.16 µM (active) | 15.8 µM (active) | 7.94 µM (active) | 1.26 µM (active) | 3.16 µM (active) | 12.6 µM (active) | 25.1 µM (active) | 25.1 µM (active) | 79.4 µM (active) | 7.94 µM (active) | 15.8 µM (active) | 39.8 µM (active) | 25.1 µM (active) |  |  | 
CCn1nc(/C=C/c2ccccc2)nc2c(=O)n(C)c(=O)nc1-2 |  |  |  |  |  |  |  |  |  |  |  |  |  |  |  | 0.335 µM (active) | 0.789 µM (active) | > 73.5 µM (inactive)
COc1cc2c(cc1Nc1nc(Nc3cccc(F)c3C(N)=O)c3cc[nH]c3n1)N(C(=O)CN(C)C)CC2 |  | > 3.98 µM (inactive) | 1.26 µM (active) | > 2.51 µM (inactive) | > 3.16 µM (inactive) | 0.02 µM (active) | 0.398 µM (active) | > 2.51 µM (inactive) | 0.158 µM (active) | > 3.16 µM (inactive) | > 2.51 µM (inactive) | 1.26 µM (active) | 0.0316 µM (active) | > 2.51 µM (inactive) | > 2.51 µM (inactive) |  |  | 
